Measured values from patent publication US10144758B2, “Deuterated bile acids” (Metselex, Inc., priority 2013, dated 2018).

System: primary rat hepatocytes
Experiment: DCA-induced caspase-3/7 activity (ApoTox-Glo Triplex)
Type: cell-based
Conditions: 50 and 100 μM DCA; pretreatment; FIG. 7B
Description: Primary rat hepatocytes were isolated from male rats (100-150 grams) by collagenase perfusion (as described by Solá S, et al., 2003, Journal of Biological Chemistry 278: 48831-48838)). Briefly, rats were anesthetized with phenobarbital sodium (100 mg/kg body weight) injected into the peritoneal cavity. After administration of heparin (200 units/kg body weight) in the tail vein, the animal's abdomen was opened and the portal vein exposed and cannulated. The liver was then perfused at 37° C. in situ with a calcium-free Hanks' Balanced Salt Solution (HBSS) for about 10 minutes, and then with 0.05% collagenase type IV in calcium-present HBSS for another 10 minutes. […] Cell viability was determined by trypan blue exclusion and was typically 80-85%. […]
The ApoTox-Glo™ Triplex Assay (Promega Corp., Madison, Wis., USA) was used to evaluate cell viability, cytotoxicity and caspase-3/7 activity, according to the manufacturer's protocol, using a GloMax+ Multi Detection System (Promega Corp.). General cell death was also evaluated using the lactate dehydrogenase (LDH) Cytotoxicity Detection Kit^PLUS (Roche Diagnostics GmbH, Mannheim, Germany), following the manufacturer's instructions. […]

For “7,8-[^2H]-3α,7α-dihydroxy-5β-cholan-24-oic acid/7-[^2H]-3α,7α-dihydroxy-5β-cholan-24-oic acid [Compound 5]”, the “inhibition of caspase activity” value was “more effective than UDCA”.
